Where a name gives a salt, the structure may show the parent alone.

In experiment [1] the target is rhIDO (recombinant human IDO) (Homo sapiens, UniProt P14902). The experiment is described as follows: Enzyme assay using rhIDO (rate of kynurenine production). Format: biochemical. The note with it: 2 h; final concentration of the compound 10 μM; rate relative to reaction without compound; read-out: rhIDO-mediated kynurenine production. The procedure: Enzyme Assay Protocol Using rhIDO (Recombinant Human IDO)
4 μL of a compound solution was added to 176 μL of a rhIDO reaction solution (0.5 M potassium phosphate buffer (20 μL), 0.2 M ascorbic acid (20 μL), 0.5 mM methylene blue (4 μL), 10 mg/mL catalase (2 μL), H2O (128 μL), and rhIDO (2 μL)). The mixture was pipetted and preincubated at 37° C. for 10 minutes. Then, the whole amount was brought to 200 μL by the addition of 20 μL of a 2 mM aqueous tryptophan solution, and the mixture was pipetted again and reacted at 37° C. for 120 minutes. After the reaction, the enzymatic reaction was terminated by the addition of 40 μL of a 30% [v/v] aqueous trichloroacetic acid solution to the reaction solution. The mixture was well stirred by pipetting and heated at 50° C. for 15 minutes so that N-formylkynurenine was converted to kynurenine. The reaction solution thus heated was centrifuged (15,000 rpm, 5 min, 24° C.), and 150 μL of the supernatant was transferred to a transparent 96-well flat-bottomed plate, followed by the measurement of absorbance at 490 nm using SpectraMax MSSK (background measurement). After the measurement, a solution of 2% [w/v] p-dimethylbenzaldehyde in acetic acid was added at 150 μL/well and reacted for 5 minutes, followed by the measurement of absorbance at 490 nm again. The rate of kynurenine production was calculated according to the following expression. Rate of kynurenine production (%) for each compound in the case of using rhIDO={(Absorbance at 490 nm in the tryptophan-containing aqueous solution comprising rhIDO and the compound of the present invention−Absorbance of the background)/(Absorbance at 490 nm in the tryptophan-containing aqueous solution without the addition of the compound solution−Absorbance of the background)}×100 Enzyme Assay Protocol Using rhTDO (Recombinant Human TDO)

Experiment [2] deals with rhTDO (recombinant human TDO) (Homo sapiens, UniProt P48775). Put plainly: Enzyme assay using rhTDO (rate of kynurenine production). The format is biochemical. The note with it: 2 h; final concentration of the compound 10 μM; rate relative to reaction without compound; read-out: rhTDO-mediated kynurenine production. The method, then:
4 μL of a compound solution was added to 176 μL of a rhTDO reaction solution (0.5 M potassium phosphate buffer (20 μL), 0.2 M ascorbic acid (20 μL), 0.5 mM methylene blue (4 μL), 10 mg/mL catalase (2 μL), H2O (128 μL), and rhTDO (2 μL)). The mixture was pipetted and preincubated at 37° C. for 10 minutes. Then, the whole amount was brought to 200 μL by the addition of 20 μL of a 20 mM aqueous tryptophan solution, and the mixture was pipetted again and reacted at 37° C. for 120 minutes. After the reaction, the enzymatic reaction was terminated by the addition of 40 μL of a 30% [v/v] aqueous trichloroacetic acid solution to the reaction solution. The mixture was well stirred by pipetting and heated at 50° C. for 15 minutes so that N-formylkynurenine was converted to kynurenine. The reaction solution thus heated was centrifuged (15,000 rpm, 5 min, 24° C.), and 150 μL of the supernatant was transferred to a transparent 96-well flat-bottomed plate, followed by the measurement of absorbance at 490 nm using SpectraMax M5 SK (background measurement). After the measurement, a solution of 2% [w/v] p-dimethylbenzaldehyde in acetic acid was added at 150 μL/well and reacted for 5 minutes, followed by the measurement of absorbance at 490 nm again. The rate of kynurenine production was calculated according to the following expression. Rate of kynurenine production (%) for each compound in the case of using rhTDO={(Absorbance at 490 nm in the tryptophan-containing aqueous solution comprising rhTDO and the compound of the present invention−Absorbance of the background)/(Absorbance at 490 nm in the tryptophan-containing aqueous solution without the addition of the compound solution−Absorbance of the background)}×100 IDO Cell-Based Assay Protocol

Experiment [3] concerns the target T1, IDO in A431 cells (Homo sapiens, UniProt P14902).
T1 construct: endogenous in cells; host or cells: A431 cells, IFN-γ stimulated
The experiment is described as follows: IDO cell-based assay, kynurenine production in IFN-γ stimulated A431 cells. The settings on record: A-431, 24 h; final concentration of the compound 10 μM; rate relative to culture without compound. The procedure:
A431 cells (3.0×10^5 cells/mL) suspended in a culture medium for assay (D-MEM; Wako 040-30095, 5% FBS, 50 units/mL penicillin, 50 μg/mL streptomycin, and 2 mM L-glutamine) were inoculated at 100 μL/well to a transparent 96-well flat-bottomed plate and cultured at 37° C. for 24 hours in 5% CO2. The culture medium was removed from the cells thus cultured. A tryptophan-containing culture medium (culture medium for assay supplemented with 178 μM L-tryptophan) was added at 80 μL/well, and further, a compound solution was added at 10 μL/well. The cells were preincubated for 1 hour. Then, the whole amount was brought to 100 μL/well by the addition of 10 μL/well of IFN-γ diluted into 100 ng/mL with a tryptophan-containing culture medium, and the cells were cultured for 24 hours. After the culture, absorbance was measured at 460 nm using SpectraMax MSSK (Molecular Devices, LLC) (background measurement). After the measurement, a kynurenine quantification reagent (prepared with 7% [v/v] aqueous trichloroacetic acid solution and a solution of 2% [w/v] p-dimethylbenzaldehyde in acetic acid at 2:5 [v/v]) was added at 200 μL/well and reacted for 5 minutes, followed by the measurement of absorbance at 460 nm again. The rate of kynurenine production was calculated according to the following expression. Rate of kynurenine production (%) for each compound in the case of using A431 cells={(Absorbance at 460 nm in the tryptophan-containing culture medium comprising the A431 cells and the solution of the compound of the present invention−Absorbance of the background)/(Absorbance at 460 nm in the tryptophan-containing culture medium without the addition of the compound solution−Absorbance of the background)}×100 TDO Cell-Based Assay Protocol

Experiment [4] deals with T2, TDO in A172 cells (Homo sapiens, UniProt P48775).
T2 construct: endogenous in cells; host or cells: A172 cells
Put plainly: TDO cell-based assay, kynurenine production in A172 cells. The settings on record: A 172; final concentration of the compound 10 μM; rate relative to culture without compound. The procedure: A172 cells (3.0×10^5 cells/mL) suspended in a culture medium for assay (PRMI-1640; Wako 186-02155, 5% FBS, 50 units/mL penicillin, and 50 μg/mL streptomycin) were inoculated at 100 μL/well to a transparent 96-well flat-bottomed plate and cultured at 37° C. for 24 hours in 5% CO2. The culture medium was removed from the cells thus cultured. A culture medium for assay was added at 80 μL/well, and further, a compound solution was added at 10 μL/well. The cells were preincubated for 1 hour. Then, the whole amount was brought to 100 μL/well by the addition of 10 μL/well of a 5 mM aqueous tryptophan solution (final concentration of L-tryptophan: 524 μM), and the cells were cultured for 24 hours. After the culture, absorbance was measured at 460 nm using SpectraMax MSSK (Molecular Devices, LLC) (background measurement). After the measurement, a kynurenine quantification reagent (prepared with 7% [v/v] aqueous trichloroacetic acid solution and a solution of 2% [w/v] p-dimethylbenzaldehyde in acetic acid at 2:5 [v/v]) was added at 200 μL/well and reacted for 5 minutes, followed by the measurement of absorbance at 460 nm again. The rate of kynurenine production was calculated according to the following expression. Rate of kynurenine production (%) for each compound in the case of using A172 cells={(Absorbance at 460 nm in the tryptophan-containing culture medium comprising the A172 cells and the solution of the compound of the present invention−Absorbance of the background)/(Absorbance at 460 nm in the tryptophan-containing culture medium without the addition of the compound solution−Absorbance of the background)}×100

T2 sequence (P48775 whole entry): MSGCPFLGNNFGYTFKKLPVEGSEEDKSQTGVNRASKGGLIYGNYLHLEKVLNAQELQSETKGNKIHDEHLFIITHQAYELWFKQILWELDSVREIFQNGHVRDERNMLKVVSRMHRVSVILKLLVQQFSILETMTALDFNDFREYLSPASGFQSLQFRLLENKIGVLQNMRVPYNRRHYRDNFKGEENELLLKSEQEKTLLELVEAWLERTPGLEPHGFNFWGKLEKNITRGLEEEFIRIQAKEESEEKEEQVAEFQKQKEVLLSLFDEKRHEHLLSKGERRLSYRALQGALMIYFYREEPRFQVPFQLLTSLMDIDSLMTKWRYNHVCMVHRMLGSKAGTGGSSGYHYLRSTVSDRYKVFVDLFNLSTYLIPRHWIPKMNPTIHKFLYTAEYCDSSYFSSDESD
Sequence of rhTDO (recombinant human TDO) (P48775 whole entry): as above
T1 sequence (P14902 whole entry): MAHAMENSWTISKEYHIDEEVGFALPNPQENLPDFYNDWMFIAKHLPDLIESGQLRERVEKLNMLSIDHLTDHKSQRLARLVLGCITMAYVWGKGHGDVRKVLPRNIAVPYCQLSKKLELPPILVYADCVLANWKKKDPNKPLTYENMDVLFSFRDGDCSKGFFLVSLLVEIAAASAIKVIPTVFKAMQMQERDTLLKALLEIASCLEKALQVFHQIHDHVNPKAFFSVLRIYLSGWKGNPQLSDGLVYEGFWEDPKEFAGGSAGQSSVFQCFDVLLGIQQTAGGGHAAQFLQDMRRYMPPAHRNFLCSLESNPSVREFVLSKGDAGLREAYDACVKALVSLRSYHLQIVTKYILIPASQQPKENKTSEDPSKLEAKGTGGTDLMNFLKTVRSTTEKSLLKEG
Sequence of rhIDO (recombinant human IDO) (P14902 whole entry): as above

On to `Clc1ccccc1CCN1CN=C(SCc2ccccc2CSC2=NCN(CCc3ccccc3Cl)CN2)NC1` [Compound 28, 1,2-bis(((5-(2-chlorophenethyl)-1,4,5,6-tetrahydro-1,3,5-triazin-2-yl)thio)methyl)benzene], for which the remaining activity at 10 µM in experiment [1] was 40%; in experiment [2], 53%; in experiment [3], 7%; in experiment [4], 3%.

As for `O=C1CC(=O)NC(SCc2ccccc2CSC2=NC(=O)CC(=O)N2)=N1` [Compound 30, 2,2′-((1,2-phenylenebis(methylene))bis(sulfanediyl))bis(pyrimidine-4,6(1H,5H)-dione)], the remaining activity at 10 µM in experiment [1] turned out to be 141%; in experiment [2], 126%; in experiment [3] it was 82%; in experiment [4], 94%.

`COC(=O)c1c(CSC(=N)N)[nH]c2ccccc12` [Compound 32, Methyl 2-((carbamimidoylthio)methyl)-1H-indole-3-carboxylate hydrobromide]: the remaining activity at 10 µM in experiment [1] was determined as 59%; in experiment [2], 51%; in experiment [3], 54%; in experiment [4] it was 52%.

With `N=C(N)SCc1cccnc1CSC(=N)N` [Compound 34, Pyridine-2,3-diylbis(methylene) dicarbamimidothioate dihydrobromide], the remaining activity at 10 µM in experiment [1] came out at 25%; in experiment [2], 27%; in experiment [3], 29%; in experiment [4], 47%.

For the compound `COc1ccc(CSC(=N)N)c(CSC(=N)N)c1` [Compound 35, (4-Methoxy-1,2-phenylene)bis(methylene) dicarbamimidothioate dihydrobromide], the remaining activity at 10 µM is 24% in experiment [1], 7% in experiment [2], 4% in experiment [3] and 0% in experiment [4].

Turning to `N=C(N)SCc1cc(Cl)c(Cl)cc1CSC(=N)N` [Compound 36, (4,5-dichloro-1,2-phenylene)bis(methylene) dicarbamimidothioate dihydrobromide], the remaining activity at 10 µM in experiment [1] is under 1%; in experiment [2], under 3%; in experiment [3], 1%; in experiment [4] it was -15%.

As for `Clc1ccc(CCN2CN=C(SCc3cc(Cl)c(Cl)cc3CSC3=NCN(CCc4ccc(Cl)c(Cl)c4)CN3)NC2)cc1Cl` [Compound 38, 6,6′-(((4,5-Dichloro-1,2-phenylene)bis(methylene))bis(sulfanediyl))bis(3-(3,4-dichlorophenethyl)-1,2,3,4-tetrahydro-1,3,5-triazine)], the remaining activity at 10 µM in experiment [1] was 16%; in experiment [2], 37%; in experiment [3], 2%; in experiment [4], -1%.

With `Clc1ccc(CCN2CN=C(SCc3ccc(Br)cc3CSC3=NCN(CCc4ccc(Cl)c(Cl)c4)CN3)NC2)cc1Cl` [Compound 39, 6,6′-(((4-Bromo-1,2-phenylene)bis(methylene))bis(sulfanediyl))bis(3-(3,4-dichlorophenethyl)-1,2,3,4-tetrahydro-1,3,5-triazine)], the remaining activity at 10 µM in experiment [1] turned out to be 7%; in experiment [2], 38%; in experiment [3] it was 0%; in experiment [4], 7%.

Take `c1csc(CCN2CN=C(SCc3ccccc3CSC3=NCN(CCc4cccs4)CN3)NC2)c1` [Compound 40, 1,2-Bis (((5-(2-(thiophen-2-yl)ethyl)-1,4,5,6-tetrahydro-1,3,5-triazin-2-yl)thio)methyl)benzene]: the remaining activity at 10 µM in experiment [1] stood at 34%; in experiment [2] it was 29%; in experiment [3], 9%; in experiment [4], 1%.

As to `Clc1ccc(CN2CN=C(SCc3ccccc3CSC3=NCN(Cc4ccc(Cl)cc4)CN3)NC2)cc1` [Compound 41, 1,2-Bis(((5-(4-chlorobenzyl)-1,4,5,6-tetrahydro-1,3,5-triazin-2-yl)thio)methyl)benzene], the remaining activity at 10 µM in experiment [1] amounted to 41%; in experiment [2], 45%; in experiment [3], 6%; in experiment [4], 4%.

Take `FC(F)(F)c1ccc(CN2CN=C(SCc3ccccc3CSC3=NCN(Cc4ccc(C(F)(F)F)cc4)CN3)NC2)cc1` [Compound 42, 1,2-Bis(((5-(4-(trifluoromethyl)benzyl)-1,4,5,6-tetrahydro-1,3,5-triazin-2-yl)thio)methyl)benzene]: the remaining activity at 10 µM was 68% in experiment [1], 41% in experiment [2], 6% in experiment [3] and 2% in experiment [4].
